These results are taken from paper PMC11570312, “Development, optimization, and characterization of polymeric micelles to improve dasatinib oral bioavailability: Hep G2 cell cytotoxicity and in vivo pharmacokinetics for targeted liver cancer therapy” (Heliyon, 2024).

In data set [1] the test system is HepG2 cells. The experiment in a line: Cell cycle analysis with flow cytometry. The data set is classed as cell-based, human. The following applies: HepG2, 24 h at IC50. As to the method: Specimens were placed on cells and incubated for 24 h. The cells that were not subjected to any treatment were the control cells. After the set incubation duration, trypsin was applied to detach the cells. Subsequently, the cells were gathered in a 1.5-mL vial and rinsed with 500 μL of chilled PBS [39]. A suspension of approximately 10^6 cells was prepared by gently vortexing 100 μL of PBS, resulting in a monodispersed cell suspension with minimal aggregation. The cells were then fixed by adding this solution to centrifuge tubes containing 900 μL of 70 % ethanol on ice, followed by incubation at 4 °C for at least 2 h. Cells can be stored in 70 % ethanol at 4 °C for several weeks. According to Sun et al. after centrifugation post-fixation, the cell pellet was resuspended in 500 μL of Propidium Iodide (PI) staining solution (0.1 % (v/v) Triton X-100, 10 μg/mL PI, and 100 μg/mL DNase-free RNaseA in PBS). The mixture was incubated in the dark for 30 min at room temperature or 10 min at 37 °C. Finally, samples were analyzed using a flow cytometer.
(In general: In flow cytometry, cells or beads pass a laser one at a time.)

For data set [2], the system named is HepG2 cells. Put plainly: Cellular uptake (fluorescence microscopy, flow cytometry). It counts as cell-based, human. As to conditions: HepG2, 50 and 100 μg/mL DAS, 1 and 4 h. The method, then:
The cellular uptake of DAS polymeric micelles was evaluated by examining the uptake of DAS by HepG2, hepatocellular carcinoma, and murine melanoma cells after exposure to free DAS and DAS-PMs micelles. Cells were visualized under a fluorescence microscope, and the DAS fluorescence intensity in treated cells was measured using flow cytometry. Fluorescent micrographs depicted HepG2 cells that had been treated with free DAS and DAS-PMs for durations of 0, 1, and 4 h. […] This rise was in comparison to the control group. However, DAS-PMs may quickly accumulate in HepG2 cells, as indicated by the vivid green fluorescence—even just 1 h after. When cells were treated with DAS-PMs for 4 h, the fluorescence intensity increased much more than after 1 h. At the 1- and 4-h time points, the fluorescence intensity in cells treated with 100 μg/mL of DAS in DAS-PMs was considerably higher than that in cells treated with 50 μg/mL of DAS. The dose- and time-dependent rise in fluorescence intensity was quantitatively evaluated using flow cytometry on HepG2 cell lines, as illustrated in Fig. 12.

Data set [3] has as its system HepG2 liver cell lines. The experiment in a line: In-vitro scratch assay. As to conditions: HepG2, after 48 h of treatment. It counts as cell-based, human. An excerpt:
The aim of the in-vitro scratch test is to assess how effectively cancer cell growth is curbed.

For data set [4], the system named is HepG2 cells. Put plainly: ROS estimation with flow cytometry (DCFDA). The following applies: HepG2, 24 h, Control 1 %. The data set is classed as cell-based, human. As to the method:
Cells were seeded into six-well plates at densities ranging from 5000 to 10,000 HepG2 cells per well, using 1 mL of DMEM media supplemented with 10 % FBS and 1 % antibiotic solution. The plates were then incubated at 37 °C with 5 % CO2 for 24 h. Prior to treatment, the old culture medium was replaced with fresh medium, designating untreated cells as controls. Following the protocol by Gupta et al. cells were treated with various agents and further incubated for 24 h. After incubation, the medium was removed, and cells were detached using trypsin-EDTA, transferred to 1.5 mL tubes, and washed with 500 μl of cold PBS. The cell pellet was resuspended in 100 μl of PBS containing 2 μM DCFDA, and samples were incubated for 1 h before analysis using a BD FACS Calibur flow cytometer (USA). Data were processed using version 2.5.1 of the Flowing software program.

Data set [5] can be described thus: MTT/SRB cytotoxicity assay. It counts as cell-based. As to conditions: human, HepG2 cells; HepG2, after 48 h. The method, then: The MTT assay was performed to assess the cytotoxicity of the samples on the HepG2 cell line. Approximately 8000 cells per well were cultured in a 96-well plate for 24 h at 37 °C with 5 % CO2 in DMEM medium supplemented with 10 % FBS and 1 % antibiotic solution. The following day, cells were exposed to various dosages and concentrations ranging from 1 to 2500 μM, prepared using incomplete medium to achieve the desired concentrations. After a 24-h incubation period, 100 μL of 10 % trichloroacetic acid (TCA) was added to each well and incubated for 1 h. Then, the plate was washed with distilled water and allowed to dry at room temperature. MTT solution was added to each well at a final concentration of 0.04 % and was allowed to sit for 1 h. After an hour of incubation, the plate was air-dried at room temperature before being cleaned with 1 % (v/v) acetic acid to remove any remaining color. To solubilize the protein-bound dye, Tris base solution (pH = 10.5) was added to a well and shaken for 10 min on an orbital shaker. The protein-bound dye was then detected at 510 nm using an ELISA plate reader (iMark, Biorad, USA).
The cytotoxicity of the samples was evaluated using the HepG2 cell line, obtained from NCCS Pune, through the MTT assay. […] The results were measured at 540 nm and 660 nm using a Bio-Rad ELISA plate reader (USA). The IC50 value was calculated using GraphPad Prism 9 software. […]
(In general: Sulforhodamine B stains cellular protein and so reports cell mass.)

The nature of data set [6]: In vitro release of dasatinib (dialysis bag). The data set is classed as physicochemical. The following applies: 12 h, pH 7.4, 37 °C. As to the method:
To imitate the journey of polymeric micelles through the gastrointestinal tract, an in vitro drug release test was conducted. To simulate drug release from polymeric micelles, a release test was conducted using a phosphate buffer solution at pH 7.4 over 12 h, starting at the 0.5-h mark. The pH of human blood and most bodily tissues is roughly 7.4. Performing the release research at this pH allows us to forecast how dasatinib will behave once taken into the bloodstream and dispersed throughout the body. […] This information aids in evaluating how much of the drug can reach the systemic circulation for therapeutic activity. Each test was performed in a medium containing 0.5 % w/v Tween 20 to maintain sink conditions. A dialysis bag containing 1 mL of a freshly prepared dispersion of dasatinib-loaded micelles was sealed with clips and placed into a glass container filled with 90 mL of […]. This setup was incubated in a water bath set at 37 °C with agitation at 150 rotations per minute. At specified time intervals ([…]), 5 mL samples of the release medium were withdrawn and replaced with fresh medium to maintain volume consistency. The amount of drug released was measured by analyzing the UV absorbance of the samples at 323 nm. A standard curve for […] in each medium was used for the quantification. […]

The subject of data set [7] is HepG2 cell lines. The experiment in a line: Cellular apoptosis with flow cytometry (Annexin V-FITC/PI). It counts as cell-based, human. The following applies: HepG2, IC50 dose. The method, then:
HepG2 cell lines, obtained from NCCS Pune, were cultured and treated with the compound's IC-50 dosage. Post-treatment, the cells were divided into five groups: unstained cells, control group, annexin-only, PI-only, and treatment. The cells were then resuspended in 1X binding buffer at a concentration of 1 × 10^6 cells/mL. FITC and PI from Annexin V were added to the appropriately labeled tubes. According to Zhan et al., 1X binding buffer was added to each tube, and they were incubated for 15 min at room temperature. The samples were analyzed using a BD FACS Lyric™ flow cytometer within an hour.

A short description of data set [8]: In vivo pharmacokinetics. Also noted: species or system Male Wistar rats. As to conditions: male, Wistar; for Cmax / Tmax: rat plasma. The method, then: Male Wistar rats, each weighing 200 ± 10 g, were obtained from the Experimental Animal Centre at NMIMS University. The study was conducted in accordance with the guidelines approved by the NMIMS University Animal Experimental Ethics Committee (protocol number SPTM/09/2023/IAEC/05). […] The total dose of DAS in two group was 5 mg/kg via intravenous. Blood samples (0.4 mL) were collected from the rats via intravenous injection at specified time intervals (0.5, 1, 2, 3, 4, 5, 6, 8, 10, and 12 h) and were immediately transferred into heparinized tubes. The samples were centrifuged at 12,000 rpm for 10 min to separate the plasma, which was then stored at −20 °C until analysis. The plasma samples were subsequently subjected to high-performance liquid chromatography (HPLC) to determine the concentration of dasatinib. The blood extraction process was conducted as follows: Initially, 15 μL of an internal standard solution (methanol, 10 μg/mL) was added to each tube containing 0.4 mL of blood, followed by vortexing for 1 min. Subsequently, 1 mL of acetonitrile was added, and the mixture was vortexed for an additional minute. The samples were then centrifuged at 12,000 rpm for 10 min. After centrifugation, the organic layer was carefully transferred to a sterile tube and evaporated under a gentle nitrogen stream. The dried extracts were reconstituted in 0.4 mL of a methanol/water solution (70/30, v/v) before undergoing high-performance liquid chromatography (HPLC) analysis. The pharmacokinetic parameters were calculated using the DAS 2.1.1 software (Shanghai, China).

Setting [9] is: plasma, rat, 5 mg/kg via intravenous.

What is called viability is the share of living cells, or the viability signal relative to a control. Low readings indicate more harm to the cells, high ones less harm to the cells. By Cmax is commonly meant the highest concentration seen after dosing. By Tmax is commonly meant the time from dosing to the highest level. For orientation: MRT means the average time that molecules of a dose stay in the body. The term half-life denotes the time needed for the level to fall by half in the phase considered. Low readings indicate rapid decline, high ones slow decline. Turning to `Cc1nc(Nc2ncc(C(=O)Nc3c(C)cccc3Cl)s2)cc(N2CCN(CCO)CC2)n1` [DAS, dasatinib], the “percentage of cells in G2 phase” value in data set [1] (control 18.14 %) turned out to be 11.94%. Moreover, the “percentage of cells in S phase” value in data set [1] (control 20.04 %) is listed as 14.22%. For the same compound, the “percentage of cells in G1 phase” value in data set [1] (control 58.18 %) is 67.14%. For the same compound, the “fluorescence intensity (cellular uptake)” value in data set [2] was “slight rise in fluorescence intensity”. Besides, the “cell migration (scratch wound)” value in data set [3] was “curbed cell migration”. Also, the “ROS, MFI-positive cells” value in data set [4] is listed as 3.09%. Further, the viability at 48 h in data set [5] was found to be 12.2 ± 0.63%. Further, in data set [6], the drug released came to 40%. This compound came in with an early apoptotic cells in data set [7] (control 3.38 %) of 0.6%. The necrotic cells in data set [7] (control 13.28 %) amounted to 18.1%. In data set [7] (control 19.56 %), this compound returned a late apoptotic cells of 72.4%. For the same compound, in data set [8] (intravenous, 5 mg/kg), the concentration peaked (Cmax) at 12330 ± 60 ng/mL and the Tmax was 2 h. In data set [8] (setting [9]), this compound showed an MRT of 3.3 h and a half-life of 4.08 ± 0.786 h. In data set [8] (5 mg/kg via intravenous), the Cmax was 12300 ± 2310 ng/mL and the Tmax was 2 h.
